Read-outs that look alike come from different tables or passages of the source. One block for each compound: values may come before it.
Tests used:
22Rv1DOC8 = assay: 3D clonogenic assay (soft agar); assay type: cell-based, human; conditions: 3D clonogenic assay; for IC50: 22Rv1DOC8, read-out: Cabazitaxel IC50; for Relative resistance: 22Rv1DOC8 vs 22Rv1
22Rv1 = assay: 3D clonogenic assay (soft agar); conditions: for IC50: Homo sapiens, 22Rv1, read-out: Cabazitaxel IC50, 22Rv1, 3D clonogenic assay
DU-145DOC10 = assay: 3D clonogenic assay (soft agar); assay type: cell-based, human; conditions: for Relative resistance: DU-145DOC10 vs DU-145; for IC50: Homo sapiens, DU-145DOC10
DU-145 [1] = assay: 3D clonogenic assay (soft agar); conditions: for IC50: Homo sapiens, DU-145, read-out: Cabazitaxel IC50, DU-145, 3D clonogenic assay
PC-3 = assay: 2D proliferation assay (CellTiter-Blue); assay type: cell-based; conditions: Homo sapiens, read-out: Relative ritonavir IC50, PC-3
LXFA 737 = assay: 2D proliferation assay (CellTiter-Blue); conditions: read-out: Relative ritonavir IC50
MAXFTN MX1 = assay: 2D proliferation assay (CellTiter-Blue); conditions: read-out: Relative ritonavir IC50
OVXF EFO-27 = assay: 2D proliferation assay (CellTiter-Blue); conditions: Homo sapiens, EFO-27, read-out: Relative ritonavir IC50
GXA NUGC-4 = assay: cells; conditions: Homo sapiens, NUGC-4, read-out: Relative ritonavir IC50
PRXF DU-145 = assay: 2D proliferation assay (CellTiter-Blue); assay type: cell-based, human; conditions: 2D proliferation assay
MAXFTN CAL-51 = assay: cells; conditions: Homo sapiens, CAL-51, read-out: Relative ritonavir IC50
OVXF 899 = assay: cells; conditions: read-out: Relative ritonavir IC50
PRXF 22Rv1 = assay: 2D proliferation assay (CellTiter-Blue); assay type: cell-based; conditions: Homo sapiens, read-out: Relative ritonavir IC50; PRXF 22Rv1; 2D proliferation assay
PC-3M = assay: 2D proliferation assay (CellTiter-Blue); conditions: Homo sapiens, read-out: Relative ritonavir IC50
15 tumor cell lines = assay: 2D proliferation assay (CellTiter-Blue), panel of 15 tumor cell lines; conditions: at the concentration ranges tested; 2D proliferation assay
DU-145 [2] = conditions: read-out: IC50, single agent ritonavir; DU-145 proliferation assay; cited from earlier work
OVXF NCI-ADR-RES = assay: cells; conditions: Homo sapiens, read-out: Relative ritonavir IC50
GXA 3011 = assay: cells; conditions: read-out: Relative ritonavir IC50
LXFA EKVX = assay: cells; conditions: Homo sapiens, read-out: Relative ritonavir IC50
DU-145 cells = conditions: NCI60 panel, read-out: IC50 value, anti-proliferative effect; cited from earlier work
MAXFLB MCF7 = assay: cells; conditions: Homo sapiens, MCF7, read-out: Relative ritonavir IC50
MAXFTN MCF 10A = assay: cells; conditions: Homo sapiens, read-out: Relative ritonavir IC50

IC50 (22Rv1DOC8; + ritonavir 32 µM): 0.7 nM | IC50 (22Rv1DOC8; Homo sapiens, + ritonavir 10 µM): 5.2 nM | IC50 (22Rv1DOC8; Homo sapiens, + ritonavir 32 µM): 0.6 nM | IC50 (22Rv1DOC8; Homo sapiens, without ritonavir): 9.5 nM | IC50 (22Rv1; + ritonavir 10 µM): 0.7 nM | IC50 (22Rv1; + ritonavir 32 µM): 0.7 nM | IC50 (22Rv1; without ritonavir): 0.7 nM | IC50 (DU-145DOC10; 3D clonogenic assay, + ritonavir 10 µM, read-out: Cabazitaxel IC50): 0.6 nM | IC50 (DU-145DOC10; 3D clonogenic assay, without ritonavir, read-out: Cabazitaxel IC50): 1.5 nM | IC50 (DU-145DOC10; cabazitaxel alone, Figure 7A, read-out: IC 50): 1.46 nM | IC50 (DU-145 [1]; + ritonavir 10 µM): 0.3 nM | IC50 (DU-145 [1]; without ritonavir): 0.6 nM
Compound: CO[C@H]1C(=O)[C@]2(C)[C@@H](OC)C[C@H]3OC[C@@]3(OC(C)=O)[C@H]2[C@H](OC(=O)c2ccccc2)[C@]2(O)C[C@H](OC(=O)[C@H](O)[C@@H](NC(=O)OC(C)(C)C)c3ccccc3)C(C)=C1C2(C)C [Cabazitaxel]
Relative resistance (22Rv1DOC8; cabazitaxel + ritonavir 10 µM): 7.4 | Relative resistance (22Rv1DOC8; cabazitaxel + ritonavir 32 µM): 1.0 | Relative resistance (22Rv1DOC8; cabazitaxel without ritonavir): 13.6 | Relative resistance (DU-145DOC10; cabazitaxel + ritonavir 10 µM, 3D clonogenic assay): 1.0 | Relative resistance (DU-145DOC10; cabazitaxel without ritonavir, 3D clonogenic assay): 2.5

Compound: COc1cc2c(cc1OC)CN(CCc1ccc(NC(=O)c3cccc4c(=O)c5cccc(OC)c5[nH]c34)cc1)CC2 [Elacridar]
effect of elacridar alone on parental cells (22Rv1; 22Rv1 parental, data not shown): no effect | effect of elacridar alone on parental cells (DU-145 [1]; DU-145 parental, data not shown): no effect

IC50 (PC-3): 21700 nM | IC50 (GXA NUGC-4): 1270 nM | IC50 (PRXF DU-145; Homo sapiens, DU-145, read-out: Relative ritonavir IC50, PRXF DU-145): 16200 nM | IC50 (PRXF DU-145; read-out: Relative ritonavir IC50, PRXF DU-145): 16300 nM | IC50 (MAXFTN CAL-51): > 30000 nM | IC50 (OVXF 899): 25700 nM | IC50 (PRXF 22Rv1): 29300 nM | IC50 (PC-3M): 23300 nM | IC50 (OVXF NCI-ADR-RES): > 30000 nM | IC50 (GXA 3011): > 30000 nM | IC50 (LXFA EKVX): > 30000 nM | IC50 (MAXFLB MCF7): > 30000 nM | IC50 (MAXFTN MCF 10A): > 30000 nM
Compound: CC(C)c1nc(CN(C)C(=O)N[C@H](C(=O)N[C@@H](Cc2ccccc2)C[C@H](O)[C@H](Cc2ccccc2)NC(=O)OCc2cncs2)C(C)C)cs1 [Ritonavir]
IC50 (LXFA 737): > 30000 nM | IC50 (MAXFTN MX1): > 22600 nM | IC50 (OVXF EFO-27): > 30000 nM | single agent activity (15 tumor cell lines): no considerable or only low activity | IC50 (DU-145 [2]): 3000 nM | IC50 (DU-145 cells): > 20000 nM
